Data on 21 compounds can be found in patent US7534894B2, “Biphenyloxy-acids” (Wyeth, priority 2003, dated 2009).

In data set [1] the target is T1, recombinant human plasminogen activator inhibitor-1 (PAI-1) (Homo sapiens, UniProt P05121).
T1 construct: purchased Molecular Innovations, Royal Oak, Mich
Put plainly: Primary Screen for the PAI-1 Inhibition (residual tPA activity, chromogenic substrate Spectrozyme-tPA). Format: biochemical. The conditions noted are these: 140 nM PAI-1, 70 nM tPA, pH 6.6; for inhibition at 25 µM: 25 μM test compound; for inhibition at 100 µM: 100 μM test compound. As to the method: (§1) Test compounds are dissolved in DMSO at a final concentration of 10 mM, then diluted 101× in physiologic buffer. The inhibitory assay is initiated by the addition of the test compound (1-100 μM final concentration, maximum DMSO concentration of 0.2%) in a pH 6.6 buffer containing 140 nM recombinant human plasminogen activator inhibitor-1 (PAI-1; Molecular Innovations, Royal Oak, Mich.). Following a 1 hour incubation at room temperature, 70 nM of recombinant human tissue plasminogen activator (tPA) is added, and the combination of the test compound, PAI-1 and tPA is incubated for an additional 30 minutes. Following the second incubation, Spectrozyme-tPA (American Diagnostica, Greenwich, Conn.), a chromogenic substrate for tPA, is added and absorbance read at 405 nm at 0 and 60 minutes. Relative PAI-1 inhibition is equal to the residual tPA activity in the presence of the test compound and PAI-1. Control treatments include the complete inhibition of tPA by PAI-1 at the molar ratio employed (2:1), and the absence of any effect of the test compound on tPA alone.

Data set [2] concerns the target T1, recombinant human plasminogen activator inhibitor-1 (PAI-1). Put plainly: Kinetic IC50: modification of the Primary Screen for the PAI-1 Inhibition. Format: biochemical. As to the method:
as §1

pIC50: −log10 of the molar value.

T1 sequence (P05121 24-402): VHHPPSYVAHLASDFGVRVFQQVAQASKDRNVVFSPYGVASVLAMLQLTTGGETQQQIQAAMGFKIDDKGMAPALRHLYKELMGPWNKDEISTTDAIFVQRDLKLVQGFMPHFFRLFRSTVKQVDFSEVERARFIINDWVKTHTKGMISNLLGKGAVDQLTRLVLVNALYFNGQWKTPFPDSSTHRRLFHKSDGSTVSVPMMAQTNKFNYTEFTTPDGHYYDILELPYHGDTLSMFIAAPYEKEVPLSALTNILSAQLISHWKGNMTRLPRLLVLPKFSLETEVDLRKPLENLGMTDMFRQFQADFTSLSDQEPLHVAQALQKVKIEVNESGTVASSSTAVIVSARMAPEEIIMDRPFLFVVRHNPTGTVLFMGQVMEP

On to `CCCCc1oc2ccccc2c1C(=O)Nc1ccc(-c2ccc(OCc3nnn[nH]3)cc2)cc1` [Compound 14, 2-Butyl-N-[4′-(1H-tetraazol-5-ylmethoxy)[1,1′-biphenyl]-4-yl]-1-benzofuran-3-carboxamide], for which the melting point lay in the range of 210 to 212 °C. For the same compound, in data set [1], the inhibition at 25 µM is 29% and the inhibition at 100 µM was determined as 62%.
In turn, `CCCCc1oc2ccccc2c1C(=O)Nc1ccc(-c2ccc(OCC(=O)O)cc2)cc1` [Compound 13, [(4′-{[(2-butyl-1-benzofuran-3-yl)carbonyl]amino}[1,1′-biphenyl]-4-yl)oxy]acetic acid] gave a melting point of 225 to 227 °C. Also, in data set [1], the inhibition at 25 µM turned out to be 25% and the inhibition at 100 µM amounted to 85%.
For `O=C(O)COc1ccc(-c2ccc(NC(=O)c3cc(-c4ccc(-c5ccccc5)cc4)oc3C(F)(F)F)cc2)cc1` [Compound 36, [(4′-{[5-(1,1′-biphenyl-4-yl)-2-(trifluoromethyl)-3-furoyl]amino}-1,1′-biphenyl-4-yl)oxy]acetic acid], the pIC50 in data set [2] was 4.74. Further, in data set [1], the inhibition at 25 µM was 29% and the inhibition at 100 µM was determined as 75%.
As for `O=C(O)C(Cc1ccccc1)Oc1ccc(-c2ccc(NC(=O)C3(c4cccc(F)c4)CCCC3)cc2)cc1` (stereo not drawn) [Compound 34, 2-{[4′-({[1-(3-fluorophenyl)cyclopentyl]carbonyl}amino)-1,1′-biphenyl-4-yl]oxy}-3-phenylpropanoic acid], the pIC50 in data set [2] was 4.41. In data set [1], the inhibition at 25 µM came out at 33% and the inhibition at 100 µM stood at 70%.
Consider `O=C(Nc1ccc(-c2ccc(OC(Cc3ccccc3)C(=O)O)cc2)cc1)c1cc(-c2ccccc2Cl)oc1C(F)(F)F` (stereo not drawn) [Compound 48, 2-[(4′-{[5-(2-chlorophenyl)-2-(trifluoromethyl)-3-furoyl]amino}-1,1′-biphenyl-4-yl)oxy]-3-phenylpropanoic acid], for which the pIC50 in data set [2] was 4.63. Further, in data set [1], the inhibition at 25 µM is 7% and the inhibition at 100 µM is 78%.
In the case of `O=C(Nc1ccc(-c2cccc(OC(Cc3ccccc3)C(=O)O)c2)cc1)c1ccc(-c2ccc(Cl)cc2)s1` (stereo not drawn) [Compound 38, 2-{[4′-({[5-(4-chlorophenyl)thien-2-yl]carbonyl}amino)-1,1′-biphenyl-3-yl]oxy}-3-phenylpropanoic acid], the pIC50 in data set [2] was 4.41. In data set [1], the inhibition at 25 µM came out at 5% and the inhibition at 100 µM was 52%.
With `O=C(Nc1ccc(-c2ccc(OC(Cc3ccccc3)C(=O)O)cc2)cc1)c1ccc(-c2ccc(Cl)cc2)s1` (stereo not drawn) [Compound 46, 2-{[4′-({[5-(4-chlorophenyl)thien-2-yl]carbonyl}amino)-1,1′-biphenyl-4-yl]oxy}-3-phenylpropanoic acid], the pIC50 in data set [2] is 5.27. Also, in data set [1], the inhibition at 25 µM was found to be 36% and the inhibition at 100 µM stood at 84%.
On to `CCCCc1oc2ccccc2c1C(=O)NCc1ccc(-c2ccc(OCC(=O)O)c(Br)c2)cc1` [Compound 4, {[3-bromo-4′-({[(2-butyl-1-benzofuran-3-yl)carbonyl]amino}methyl)[1,1′-biphenyl]-4-yl]oxy}acetic acid], for which the melting point fell in the range of 175 to 190 °C. Moreover, in data set [1], the inhibition at 25 µM turned out to be 44% and the inhibition at 100 µM was determined as 82%.
As for `O=C(O)COc1ccc(-c2ccc(NC(=O)C3(c4ccc(Cl)cc4)CCC3)cc2)cc1` [Compound 35, {[4′-({[1-(4-chlorophenyl)cyclobutyl]carbonyl}amino)-1,1′-biphenyl-4-yl]oxy}acetic acid], the pIC50 in data set [2] is 4.41. In data set [1], the inhibition at 25 µM was found to be 15% and the inhibition at 100 µM worked out at 80%.
For `O=C(Nc1ccc(-c2ccc(OC(Cc3ccccc3)C(=O)O)cc2)cc1)c1cc(-c2ccc(C(F)(F)F)cc2)oc1C(F)(F)F` (stereo not drawn) [Compound 50, 3-phenyl-2-{[4′-({2-(trifluoromethyl)-5-[4-(trifluoromethyl)phenyl]-3-furoyl}amino)-1,1′-biphenyl-4-yl]oxy}propanoic acid] the same measures were 4.73, 27% and 95%.
For `O=C(O)C(Cc1ccccc1)Oc1ccc(-c2ccc(NC(=O)C3(c4ccccc4)CCCC3)cc2)cc1` (stereo not drawn) [Compound 31, 3-phenyl-2-[(4′-{[(1-phenylcyclopentyl)carbonyl]amino}-1,1′-biphenyl-4-yl)oxy]Propanoic acid], the pIC50 in data set [2] is 4.51. In data set [1], the inhibition at 25 µM was found to be 24% and the inhibition at 100 µM worked out at 51%.
Take `O=C(Nc1ccc(-c2cccc(OC(Cc3ccccc3)C(=O)O)c2)cc1)c1ccc(Oc2ccccc2)cc1` (stereo not drawn) [Compound 37, 2-({4′-[(4-phenoxybenzoyl)amino]-1,1′-biphenyl-3-yl}oxy)-3-phenylpropanoic acid]: in data set [2], the pIC50 was 4.74. In data set [1], the inhibition at 25 µM came out at 13% and the inhibition at 100 µM is 65%.
For `O=C(Nc1ccc(-c2cccc(OC(Cc3ccccc3)C(=O)O)c2)cc1)c1cccc2c1-c1ccccc1C2` (stereo not drawn) [Compound 24, 2-({4′-[(9H-fluoren-4-ylcarbonyl)amino]-1,1′-biphenyl-3-yl}oxy)-3-phenylpropanoic acid] the same measures were 4.92, 36% and 51%.
The corresponding values for `O=C(Nc1ccc(-c2cccc(OC(Cc3ccccc3)C(=O)O)c2)cc1)c1cc(-c2ccc(C(F)(F)F)cc2)oc1C(F)(F)F` (stereo not drawn) [Compound 43, 3-phenyl-2-{[4′-({2-(trifluoromethyl)-5-[4-(trifluoromethyl)phenyl]-3-furoyl}amino)-1,1′-biphenyl-3-yl]oxy}propanoic acid] are 4.92, 26% and 88%.
The corresponding values for `O=C(Nc1ccc(-c2cccc(OC(Cc3ccccc3)C(=O)O)c2)cc1)c1cc(-c2ccccc2Cl)oc1C(F)(F)F` (stereo not drawn) [Compound 40, 2-[(4′-{[5-(2-chlorophenyl)-2-(trifluoromethyl)-3-furoyl]amino}-1,1′-biphenyl-3-yl)oxy]-3-phenylpropanoic acid] are 4.99, 31% and 90%.
Take `CCCc1c(C(=O)Nc2ccc(-c3cccc(OC(Cc4ccccc4)C(=O)O)c3)cc2)cnn1-c1ccc(Cl)cc1` (stereo not drawn) [Compound 27, 2-{[4′-({[1-(4-chlorophenyl)-5-propyl-1H-pyrazol-4-yl]carbonyl}amino)-1,1′-biphenyl-3-yl]oxy}-3-phenylpropanoic acid]: the pIC50 in data set [2] is 5.11. For the same compound, in data set [1], the inhibition at 25 µM was found to be 20% and the inhibition at 100 µM worked out at 63%.
For `O=C(O)C(Cc1ccccc1)Oc1ccc(-c2ccc(NC(=O)C3(c4ccccc4)CC3)cc2)cc1` (stereo not drawn) [Compound 32, 3-phenyl-2-[(4′-{[(1-phenylcyclopropyl)carbonyl]amino}-1,1′-biphenyl-4-yl)oxy]Propanoic acid] the same measures were 5.39, 15% and 78%.
As for `O=C(O)C(Cc1ccccc1)Oc1cccc(-c2ccc(NC(=O)C3(c4ccc(Cl)cc4)CCCC3)cc2)c1` (stereo not drawn) [Compound 26, 2-{[4′-({[1-(4-chlorophenyl)cyclopentyl]carbonyl}amino)-1,1′-biphenyl-3-yl]oxy}-3-phenylpropanoic acid], the pIC50 in data set [2] is 4.79. Further, in data set [1], the inhibition at 25 µM was 58% and the inhibition at 100 µM stood at 69%.
As for `CCCc1c(C(=O)NCc2ccc(-c3ccc(OCC(=O)O)cc3)cc2)cnn1-c1ccccc1` [Compound 2, ({4′-[({[1-phenyl-5-propyl-1H-pyrazol-4-yl]carbonyl}amino)methyl][1,1′-biphenyl]-4-yl}oxy)acetic acid], the melting point was 190 to 192 °C. For the same compound, in data set [1], the inhibition at 25 µM stood at 2% and the inhibition at 100 µM worked out at 66%.
Regarding `O=C(Nc1ccc(-c2cccc(OC(Cc3ccccc3)C(=O)O)c2)cc1)c1cc2cc(OCc3ccccc3)ccc2[nH]1` (stereo not drawn) [Compound 28, 2-{[4′-({[5-(benzyloxy)-1H-indol-2-yl]carbonyl}amino)-1,1′-biphenyl-3-yl]oxy}-3-phenylpropanoic acid], in data set [2], the pIC50 was 5.13. Also, in data set [1], the inhibition at 25 µM came out at 27% and the inhibition at 100 µM stood at 70%.
In the case of `O=C(Nc1ccc(-c2cccc(OC(Cc3ccccc3)C(=O)O)c2)cc1)c1cc(-c2ccc(-c3ccccc3)cc2)oc1C(F)(F)F` (stereo not drawn) [Compound 42, 2-[(4′-{[5-(1,1′-biphenyl-4-yl)-2-(trifluoromethyl)-3-furoyl]amino}-1,1′-biphenyl-3-yl)oxy]-3-phenylpropanoic acid], in data set [2], the pIC50 was 4.73. Also, in data set [1], the inhibition at 25 µM came to 35% and the inhibition at 100 µM worked out at 57%.
